Laboratory results from patent US8008285B2, “Droxidopa and pharmaceutical composition thereof for the treatment of fibromyalgia” (Chelsea Therapeutics, Inc., priority 2007, dated 2011).
Several values for one entry are separate records, joined by “and”; a condition that tells them apart may be missing. Equal entries are not always repeated.

What was measured:
MAO-A = molecular target: T1, MAO-A (Homo sapiens, UniProt P21397); details: cited from earlier work
T1 sequence (P21397 1-527): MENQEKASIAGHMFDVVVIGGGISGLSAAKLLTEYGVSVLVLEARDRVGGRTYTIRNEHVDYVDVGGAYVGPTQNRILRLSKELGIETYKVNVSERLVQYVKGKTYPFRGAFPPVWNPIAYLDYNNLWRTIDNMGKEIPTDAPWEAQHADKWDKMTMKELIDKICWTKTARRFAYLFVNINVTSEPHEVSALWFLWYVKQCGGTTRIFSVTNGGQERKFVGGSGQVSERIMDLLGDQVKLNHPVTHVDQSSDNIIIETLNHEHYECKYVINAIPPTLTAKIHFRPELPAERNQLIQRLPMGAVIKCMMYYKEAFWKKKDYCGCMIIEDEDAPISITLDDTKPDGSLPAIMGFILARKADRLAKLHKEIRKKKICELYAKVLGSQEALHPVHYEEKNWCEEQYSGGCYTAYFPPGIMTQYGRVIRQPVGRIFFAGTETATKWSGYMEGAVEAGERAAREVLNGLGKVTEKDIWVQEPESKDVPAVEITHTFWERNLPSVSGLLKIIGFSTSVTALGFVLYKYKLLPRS

[1] = tested on: Chronic Constriction Injury (CCI) model; test: Chronic Constriction Injury (CCI) model, mechanical allodynia (electronic Von Frey); format: in vivo, rat; details: 60 minutes post dosing; for levels of allodynia compared with vehicle treated animals: ANOVA followed by t-test, significant at P<0.05; for levels of allodynia compared with vehicle treated animals / (3) Post-Treatment (tactile pressure threshold), Ave. / (3) − (2), Ave. / Inhibition (%) of allodynia, Ave. / (3) Post-Treatment (tactile pressure threshold) / (3) − (2) (Post-Treatment minus Pre-Treatment) / Inhibition (%) of allodynia: IP; for (3) Post-Treatment (tactile pressure threshold), Ave. / (3) − (2), Ave. / Inhibition (%) of allodynia, Ave.: group average of 10 animals; for (3) Post-Treatment (tactile pressure threshold), Ave. / (3) − (2), Ave. / Inhibition (%) of allodynia, Ave. / (3) Post-Treatment (tactile pressure threshold) / (3) − (2) (Post-Treatment minus Pre-Treatment) / Inhibition (%) of allodynia: 400 mg/kg droxidopa and 20 mg/kg carbidopa, or 18 mg/kg fluoxetine; for (3) Post-Treatment (tactile pressure threshold) / (3) − (2) (Post-Treatment minus Pre-Treatment) / Inhibition (%) of allodynia: individual animals, male Wistar rats
Method: Treatment of fibromyalgia through reducing sensitivity to chronic pain using droxidopa in combination with carbidopa was investigated using the Chronic Constriction Injury (CCI) model. […] Specifically, after anesthetization using pentobarbital (50 mg/kg, 5 ml/kg, i.p.), the sciatic nerve was exposed at mid-thigh level, and three ligatures (4-0 silk suture), about 1 mm apart, were loosely tied around the nerve. The animals were then housed individually in cages with soft bedding for seven days before testing for mechanical allodynia. […] The tip was gradually applied with sufficient force to cause slight buckling of the filament against the paw. […] Allodynia was calculated according to the following formula: % Inhibition=ΔTreatment/ΔBlank×100%. where Δ Treatment is the change in tactile pressure threshold over pre-treatment after ligation [(Post-Treatment)-(Pre-Treatment)], and Δ Blank is change in tactile pressure threshold over pre-ligation but before treatment [(Pre-Ligation)-(Pre-Treatment)]. A one-way ANOVA followed by t-test was applied for comparison between test substance treated groups and the vehicle control group. Activity was considered significant at P<0.05.

plasma norepinephrine = test: Plasma norepinephrine concentration after dosing droxidopa combinations; format: in vivo, rat; details: 2 hours post-dosing, rats
Method: The pharmacokinetic properties of droxidopa combinations useful in the methods of the invention were evaluated in male Sprague Dawley rats.
Administration of droxidopa combinations was seen to affect plasma norepinephrine concentration in comparison to administration of droxidopa alone. Formulation 0 indicates administration of the vehicle alone without droxidopa or a droxidopa combination of the invention and provides a baseline comparative of plasma norepinephrine levels in an untreated subject.

SMILES | selectivity for MAO-A than MAO-B (MAO-A) | levels of allodynia compared with vehicle treated animals [1] | (3) Post-Treatment (tactile pressure threshold), Ave. [1] | (3) − (2), Ave. [1] | Inhibition (%) of allodynia, Ave. [1] | Inhibition (%) of allodynia, Ave. ([1]; listed as fluoxetine) | (3) Post-Treatment (tactile pressure threshold) [1] | (3) − (2) (Post-Treatment minus Pre-Treatment) [1] | Inhibition (%) of allodynia [1] | Inhibition (%) of allodynia ([1]; listed as fluoxetine) | increases in allodynia ([1]; individual fluoxetine-treated subjects, 18 mg/kg IP) | increase in plasma norepinephrine concentration (fold over vehicle alone) (plasma norepinephrine)
O=C(NCCN1CCOCC1)c1ccc(Cl)cc1 [moclobemide] | approximately three |  |  |  |  |  |  |  |  |  |  | 
CNCCC(Oc1ccc(C(F)(F)F)cc1)c1ccccc1 (stereo not shown) [Fluoxetine, fluoxetine] |  | not significantly different from vehicle-treated rats | 9.2 | 0.4 | 0.7% | less than 1% | 14.4 and 12.4 and 11.2 and 9.7 and 7 and 10.4 and 6.5 and 8.8 and 6 and 5.9 | 5.3 and 1.2 and 3 (2×) and 0.6 (2×) and 1.6 and −5.5 and −2.7 and −3.6 | 25.0% and 5.9% and 17.3% and 3.8% (2×) and 6.1% and 12.2% and −40.1% and −12.1% and −14.6% | 25% | ≤ 40.1% | 
NC(C(=O)O)C(O)c1ccc(O)c(O)c1 (stereo not drawn) [Droxidopa, threo-3-(3,4-dihydroxyphenyl)serine] |  | significantly decreased levels of allodynia | 21.7 | 13.2 | 65.7% |  | 26.3 and 32.1 and 23.4 and 26.2 and 22.9 and 11.4 and 20.1 and 12.6 and 22.3 and 19.7 | 16.2 and 24.4 and 16.7 and 14.4 and 16.3 and 2.8 and 13.8 and 6 and 10.9 (2×) | total allodynia inhibition in several test subjects and 104.5% and 115.6% and 66.3% and 75.8% and 74.4% and 11.5% and 72.6% and 26.1% and 62.3% and 48.0% |  |  | ~5 fold
